The nature of this data set: Intrinsic pH of ceftolozane in solution. Type of data set: physicochemical. To be noted: solution (2%). Here is the method: A formulation close to physiologic pH was targeted. This necessitates an alkalizing agent due to intrinsic pH 1.92 of ceftolozane in solution (2%). The initial study of alkalizing agents included sodium hydroxide, L-arginine, tris, sodium bicarbonate, meglumine, diethanolamine, and triethanolamine. Samples containing 100 mg ceftolozane sulfate, 22.9 mg sodium chloride, 200 mg maltose, and 2 mg citric acid anhydrous were prepared and adjusted to about pH 4. The samples were lyophilized and powders stored at 70° C. for 3 days, 60° C. for 3, 6 and 9 days and at 40° C. for one month. The stored samples were then analyzed for ceftolozane content.

On to `Cn1c(N)c(NC(=O)NCCN)c[n+]1CC1=C(C(=O)[O-])N2C(=O)[C@@H](NC(=O)/C(=N\OC(C)(C)C(=O)O)c3nsc(N)n3)[C@H]2SC1` [ceftolozane], for which the “intrinsic pH of ceftolozane in solution” value was determined as 1.92.

These data come from US20140274992A1, “CEFTOLOZANE PHARMACEUTICAL COMPOSITIONS” (Cubist Pharmaceuticals, Inc., priority 2013, published 2014).
